The values below come from US20240116946A1 (Gilead Sciences, Inc., priority 2022, published 2024).

Assay [1] deals with recombinant SARS-CoV-2 Main protease (Mpro) (Severe acute respiratory syndrome coronavirus 2 (2019-nCoV) (SARS-CoV-2), UniProt P0DTD1). In words: Cov Mpro Biochemical IC50 Assay. The settings on record: read-out: MPro IC50.
Assay [2] deals with SARS-CoV-2-NLuc. In words: microbe, parasite or virus in culture. In kind it is cell-based, SARS Coronavirus 2.
The mark [3] stands for this setting: recombinant SARS-CoV-2 Mpro 7.5 nM, fluorogenic peptide substrate 40 μM.
The mark [4] stands for this setting: Severe acute respiratory syndrome coronavirus, 48 h, read-out: MPro EC50.
Where [5] appears, read: recombinant SARS-CoV-2 Mpro, fluorogenic peptide substrate.
Where [6] appears, read: Severe acute respiratory syndrome coronavirus, 48 h; read-out: MPro EC50.

The IC50 is the concentration needed to halve the response being measured. The EC50 is the concentration giving half of the maximal effect.

Where two headings read alike, the source gives them in different places. Some results are limits rather than exact numbers.

Take `COc1ccc(C#N)c(-c2cc3[nH]c(=O)n(-c4cncc5ccccc45)c(=O)c3cc2F)c1` [Example 428, 2-(6-fluoro-3-(isoquinolin-4-yl)-2,4-dioxo-1,2,3,4-tetrahydroquinazolin-7-yl)-4-methoxybenzonitrile]: in assay [1] (setting [3]), the IC50 is 10.2 nM. In addition, the EC50 in assay [2] (setting [4]) turned out to be 17.9 nM.
For `CC(C)c1ccccc1-c1ccc2c(=O)n(-c3cncc4ccccc34)c(=O)[nH]c2c1` [Example 52], the IC50 in assay [1] (setting [5]) stood at 12800 nM. Further, the EC50 in assay [2] (setting [4]) stood at 3720 nM.
Turning to `CCCOc1ccc(Cl)c(-c2ccc3c(=O)n(-c4cncc5ccccc45)c(=O)[nH]c3c2)c1` [Example 249], the IC50 in assay [1] (setting [5]) came to 269 nM. Moreover, in assay [2] (setting [4]), the EC50 came to 110 nM.
In the case of `COc1ccc(Cl)c(-c2ccc3c(=O)n(-c4cncc5ccc(N6CCOCC6)cc45)c(=O)[nH]c3c2)c1` [Example 430], the IC50 in assay [1] (setting [3]) is 11.8 nM. In addition, the EC50 in assay [2] (setting [6]) amounted to 18.5 nM.
`O=C(C1CC1)N1CCN(c2ccc3cncc(-n4c(=O)[nH]c5cc(-c6ccccc6Cl)sc5c4=O)c3c2)CC1` [Example 423]: the IC50 in assay [1] (setting [3]) turned out to be 6.5 nM. The EC50 in assay [2] (setting [4]) is 53.7 nM.
As to `COc1ccc(Cl)c(-c2cc3c(s2)c(=O)n(-c2cncc4ccccc24)c(=O)n3CC#N)c1` (atropisomer, axis not shown) [Example 702], the IC50 in assay [1] (setting [3]) was less than 2.98 nM. For the same compound, the EC50 in assay [2] (setting [4]) was determined as 2.4 nM.
Take `COc1ccc(Cl)c(-c2cc3[nH]c(=O)n(-c4cncc5c4ccn5C)c(=O)c3s2)c1` [Example 489]: in assay [1] (setting [3]), the IC50 was determined as 2.63 nM. Moreover, the EC50 in assay [2] (setting [4]) stood at 20.4 nM.
`COc1cc(-c2cc3[nH]c(=O)n(-c4cncc5cnn(C)c45)c(=O)c3s2)c(C)cc1F` [Example 657]: in assay [1] (setting [3]), the IC50 came out at 14.4 nM. For the same compound, in assay [2] (setting [4]), the EC50 amounted to 27.4 nM.
With `COc1cc(-c2cc3[nH]c(=O)n(-c4cncc5cc(C(=O)N6CCOCC6)sc45)c(=O)c3s2)c(Cl)cc1F` [Example 649], the IC50 in assay [1] (setting [3]) came out at 7.91 nM. Further, the EC50 in assay [2] (setting [4]) was 195 nM.
Regarding `COc1cc(-c2cc3[nH]c(=O)n(-c4cncc5cnn(C)c45)c(=O)c3s2)c(Cl)cc1F` (single isomer, unassigned) [Example 640, 6-(2-chloro-4-fluoro-5-methoxy-phenyl)-3-(1-methylpyrazolo[4,3-c]pyridin-7-yl)-1H-thieno[3,2-d]pyrimidine-2,4-dione], the IC50 in assay [1] (setting [3]) was less than 4.26 nM. For the same compound, in assay [2] (read-out: MPro EC50), the EC50 was 3.48 nM.
Consider `Cc1noc(C)c1-c1cc2[nH]c(=O)n(-c3cncc(C4CC4)c3)c(=O)c2s1` [Example 368], for which the IC50 in assay [1] (setting [5]) was 411 nM. For the same compound, in assay [2] (setting [6]), the EC50 was 1920 nM.
Take `O=c1[nH]c2cc(-c3cc(OC(F)(F)F)ccc3Cl)ccc2c(=O)n1-c1cncc2ccccc12` [Example 181]: in assay [1] (setting [5]), the IC50 stood at 1220 nM. The EC50 in assay [2] (setting [4]) was 438 nM.
For `CC(C)COc1ccc(Cl)c(-c2ccc3c(=O)n(-c4cncc5ccccc45)c(=O)[nH]c3c2)c1` [Example 256] the same measures were 3990 nM and 699 nM.
As for `N#CCCn1c(=O)n(-c2cncc3ccc(C#N)cc23)c(=O)c2sc(-c3ccc(F)cc3Cl)cc21` [Example 1063], the IC50 in assay [1] (setting [3]) was determined as 17.9 nM. In assay [2] (setting [4]), the EC50 was 39.9 nM.
For the compound `COc1cc(-c2cc3[nH]c(=O)n(-c4cncc5cccnc45)c(=O)c3s2)c(C#N)cc1F` [Example 543], in assay [1] (setting [3]), the IC50 was 9.91 nM. For the same compound, the EC50 in assay [2] (setting [4]) stood at 240 nM.
`COCCn1ncc2cncc(-n3c(=O)[nH]c4cc(-c5cc(OC)c(F)cc5Cl)sc4c3=O)c21` [Example 733]: the IC50 in assay [1] (setting [3]) worked out at 15.2 nM. For the same compound, in assay [2] (setting [4]), the EC50 came out at 25.8 nM.
As to `COc1cc(-c2cc3c(s2)c(=O)n(-c2cncc4nc(C(F)(F)F)n(C)c24)c(=O)n3CCC#N)c(Cl)cc1F` (single isomer, unassigned) [Example 974, 3-(6-(2-chloro-4-fluoro-5-methoxyphenyl)-3-(1-methyl-2-(trifluoromethyl)-1H-imidazo[4,5-c]pyridin-7-yl)-2,4-dioxo-3,4-dihydrothieno[3,2-d]pyrimidin-1(2H)-yl)propanenitrile], in assay [1] (setting [3]), the IC50 was determined as 242 nM. Moreover, the EC50 in assay [2] (read-out: MPro EC50) is 602 nM.
Take `COc1cc(-c2cc3c(s2)c(=O)n(-c2nncc4ccccc24)c(=O)n3CCC#N)c(Cl)cc1F` [Example 929]: the IC50 in assay [1] (setting [3]) stood at 5.72 nM. For the same compound, the EC50 in assay [2] (setting [4]) was determined as 2.76 nM.
Turning to `O=c1[nH]c2cc(-c3c(Cl)cccc3-c3cn(CCO)nn3)ccc2c(=O)n1-c1cncc2ccccc12` [Example 293], the IC50 in assay [1] (setting [5]) came to 67.8 nM. In assay [2] (setting [4]), the EC50 was 748 nM.
In the same order, the values of `Cc1cc(-c2cccc(Cl)c2-c2ccc3c(=O)n(-c4cncc5ccccc45)c(=O)[nH]c3c2)ccn1` [Example 331] are 10.4 nM and 17 nM.
Regarding `COc1cncc(-n2c(=O)[nH]c3cc(-c4ccccc4Cl)sc3c2=O)c1` [Example 378], the IC50 in assay [1] (setting [5]) turned out to be 304 nM. Further, the EC50 in assay [2] (setting [6]) came out at 359 nM.
For `Cn1cc(-c2cccc(Cl)c2-c2ccc3c(=O)n(-c4cncc5ccccc45)c(=O)[nH]c3c2)c(C#N)n1` [Example 267], the IC50 in assay [1] (setting [5]) turned out to be 24.1 nM. In addition, the EC50 in assay [2] (setting [4]) came out at 35.5 nM.
With `O=c1ccc2cncc(-n3c(=O)[nH]c4cc(-c5ccccc5Cl)sc4c3=O)c2[nH]1` [Example 452, 6-(2-chlorophenyl)-3-(2-oxo-1,2-dihydro-1,6-naphthyridin-8-yl)thieno[3,2-d]pyrimidine-2,4(1H,3H)-dione], in assay [1] (setting [3]), the 50% inhibitory concentration (IC50) was 9.24 nM. In assay [2] (setting [4]), the EC50 was 82.5 nM.
Take `N#Cc1cncc(-c2cccc(Cl)c2-c2ccc3c(=O)n(-c4cncc5ccccc45)c(=O)[nH]c3c2)c1` [Example 298]: the concentration for half-maximal inhibition (IC50) in assay [1] (setting [5]) is 6.29 nM. The EC50 in assay [2] (setting [4]) was determined as 10.8 nM.
For `NS(=O)(=O)c1cccc(-c2cccc(Cl)c2-c2ccc3c(=O)n(-c4cncc5ccccc45)c(=O)[nH]c3c2)c1` [Example 270] the same measures were 13.9 nM and 85.3 nM.
As to `O=c1[nH]c2cc(-c3ccccc3Cl)sc2c(=O)n1-c1cncc2ncccc12` [Example 134], the IC50 in assay [1] (setting [5]) came out at 63.3 nM. Besides, the EC50 in assay [2] (setting [4]) was 150 nM.
For the compound `O=c1[nH]c2cc(-c3ccccc3)ccc2c(=O)n1-c1cncc2ccccc12` [Example 25], in assay [1] (setting [5]), the IC50 was 1410 nM. The EC50 in assay [2] (setting [4]) was 5040 nM.
On to `Cn1nnc2cncc(-n3c(=O)c4sc(-c5ccc(F)cc5Cl)cc4n(CCC#N)c3=O)c21` (single isomer, unassigned) [Example 1028, 3-[6-(2-chloro-4-fluoro-phenyl)-3-(1-methyltriazolo[4,5-c]pyridin-7-yl)-2,4-dioxo-thieno[3,2-d]pyrimidin-1-yl]propanenitrile], for which the IC50 in assay [1] (setting [3]) was 17.9 nM. For the same compound, the EC50 in assay [2] (read-out: MPro EC50) was 51 nM.
Consider `O=c1[nH]c2cc(-c3ccccc3Cl)sc2c(=O)n1-c1cncc2c(Cl)cccc12` [Example 592], for which the IC50 in assay [1] (setting [3]) is more than 50000 nM. For the same compound, the EC50 in assay [2] (setting [4]) was found to be 39500 nM.
With `COCCn1cc2cncc(-n3c(=O)c4sc(-c5cc(OC)c(F)cc5Cl)cc4n(CCC#N)c3=O)c2n1` [Example 914], the IC50 in assay [1] (setting [3]) is 4.76 nM. In addition, the EC50 in assay [2] (setting [4]) amounted to 10.9 nM.
`COc1cc(-c2cc3c(s2)c(=O)n(-c2cncc4[nH]c(=O)n(C)c24)c(=O)n3CCC#N)c(Cl)cc1F` [Example 687]: the IC50 in assay [1] (setting [3]) was 4.92 nM. The EC50 in assay [2] (setting [4]) was 148 nM.
For the compound `COc1cc(-c2cc3c(s2)c(=O)n(-c2cnnc(C)c2)c(=O)n3CCC#N)c(Cl)cc1F` [Example 988], in assay [1] (setting [3]), the IC50 was found to be 63.4 nM. The concentration for a half-maximal effect (EC50) in assay [2] (setting [4]) came out at 259 nM.
Regarding `Cc1ccc2cncc(-n3c(=O)c4sc(-c5ccccc5Cl)cc4n(CCC#N)c3=O)c2n1` [Example 907], the IC50 in assay [1] (setting [3]) was found to be 5.81 nM. Moreover, the EC50 in assay [2] (setting [4]) is 6.97 nM.
As for `Cc1noc(C)c1-c1cccc(Cl)c1-c1cc2[nH]c(=O)n(-c3cncc4ccccc34)c(=O)c2s1` [Example 355], the IC50 in assay [1] (setting [5]) turned out to be 9.64 nM. The EC50 in assay [2] (setting [4]) amounted to 22.9 nM.
As for `COc1ccc(Cl)c(-c2ccc3c(=O)n(-c4cncc5ccc(N6CC7(COCCO7)C6)cc45)c(=O)[nH]c3c2)c1` [Example 412], the IC50 in assay [1] (setting [3]) worked out at 10.8 nM. Moreover, the EC50 in assay [2] (setting [6]) amounted to 38.3 nM.
For `COc1cc(-c2cc3[nH]c(=O)n(-c4cncc5cc(C#N)sc45)c(=O)c3s2)c(Cl)cc1F` [Example 1011, 7-[6-(2-chloro-4-fluoro-5-methoxy-phenyl)-2,4-dioxo-1H-thieno[3,2-d]pyrimidin-3-yl]thieno[3,2-c]pyridine-2-carbonitrile], in assay [1] (setting [3]), the IC50 was 14.5 nM. The EC50 in assay [2] (setting [4]) amounted to 81.2 nM.
Regarding `COc1cc(-c2cc3c(s2)c(=O)n(-c2cccnc2)c(=O)n3CCC#N)c(Cl)cc1F` [Example 982], the IC50 in assay [1] (setting [3]) worked out at 4.12 nM. For the same compound, the EC50 in assay [2] (setting [4]) came out at 7.89 nM.
For the compound `COCCOc1c(C)cncc1-n1c(=O)[nH]c2cc(-c3ccccc3Cl)sc2c1=O` [Example 214], the IC50 in assay [1] (setting [5]) was 11.1 nM. In addition, in assay [2] (setting [6]), the EC50 was 20.1 nM.
With `CN1C(=O)COc2cc(-c3cccc(Cl)c3-c3ccc4c(=O)n(-c5cncc6ccccc56)c(=O)[nH]c4c3)cnc21` [Example 195], the IC50 in assay [1] (setting [5]) stood at 8.82 nM. For the same compound, the EC50 in assay [2] (setting [4]) turned out to be 9.06 nM.
As to `CS(=O)(=O)N1CCN(c2ccc3cncc(-n4c(=O)[nH]c5cc(-c6ccccc6Cl)sc5c4=O)c3c2)CC1` [Example 421], the IC50 in assay [1] (setting [3]) amounted to 4.42 nM. Also, the EC50 in assay [2] (setting [4]) amounted to 38.8 nM.
On to `COc1cc(-c2cc3c(s2)c(=O)n(-c2cncc4ccccc24)c(=O)n3CCC#N)c(C#N)cc1F` (single isomer, unassigned) [Example 967, 2-(1-(2-cyanoethyl)-3-(isoquinolin-4-yl)-2,4-dioxo-1,2,3,4-tetrahydrothieno[3,2-d]pyrimidin-6-yl)-5-fluoro-4-methoxybenzonitrile], for which, in assay [1] (setting [3]), the IC50 is 1.82 nM. Besides, in assay [2] (read-out: MPro EC50), the EC50 was found to be 1.83 nM.
Turning to `O=c1[nH]c2cc(-c3ccccc3Cl)sc2c(=O)n1-c1cncc2ccc(N3CC4C(C3)C4(F)F)cc12` (centres unmarked) [Example 231], the IC50 in assay [1] (setting [5]) came out at 22.1 nM. In addition, the EC50 in assay [2] (setting [4]) was determined as 37.4 nM.
As to `N#CCCn1c(=O)n(-c2cnccn2)c(=O)c2sc(-c3ccccc3Cl)cc21` [Example 828], in assay [1] (setting [3]), the IC50 stood at 94.1 nM. The EC50 in assay [2] (setting [4]) is 458 nM.
